Test results: patent US20250099596A1, “TETRAHYDRONAPHTHALENE COMPOUND, AND PREPARATION METHOD THEREFOR AND USE THEREOF IN MEDICINE” (Jiangsu Hengrui Pharmaceuticals Co., Ltd., priority 2021, published 2025)
Like-named read-outs stand apart in the source and are kept apart here.

Test: Pharmacokinetic evaluation, beagle test
Type: in vivo
Details: beagles; for AUC(0-t): read-out: Area under curve AUC0-t; for half-life: read-out: Half-life T1/2 (converted); for Cmax: read-out: Plasma concentration Cmax
Description: With beagles as test animals, the plasma concentrations of the compound of Example 26-1 and Comparative Example 1 were determined by LC/MS/MS at different time points after intragastric (i.g.)/intravenous (i.v.) administration to beagles. The pharmacokinetic behavior of the compound of the present disclosure in beagles was studied and its pharmacokinetic profile was evaluated.
The compound of Example 26-1 and Comparative Example 1 (see patent WO2018102725A1, Example 411), whose structure is shown below:
Sixteen beagles, of which half were male and half female, were evenly divided into 4 groups. The beagles were provided by Shanghai Medicilon Inc. The 4 groups were fasted overnight and then dosed intragastrically and intravenously.
Certain amounts of the compound of Example 26-1 and the compound of Comparative Example 1 were weighed out and mixed with 5% (v/v) DMSO+30% (v/v) PG+30% (v/v) PEG400+35% (v/v) normal saline to make 0.4 mg/mL clear solutions (for the intragastric administration groups) and 0.25 mg/mL clear solutions (for the intravenous administration groups).
The intragastric administration groups: the dose was 2.0 mg/kg, and the volume was 5.0 mL/kg.
The intravenous administration groups: the dose was 0.5 mg/kg, and the volume was 2.0 mL/kg.
The intragastric administration group: Blood (1.0 mL) was collected from the jugular vein or the forelimb vein into EDTA-K2 anticoagulation tubes before administration and 0.25 h, 0.5 h, 1.0 h, 2.0 h, 4.0 h, 6.0 h, 8.0 h, 12.0 h and 24.0 h after administration and centrifuged at 10,000 rpm for 5 min (4° C.). The plasma was separated within 1 h and stored at −80° C. before analysis. The process from blood collection to centrifugation was performed in an ice bath. Three hours after administration, feeding was resumed.
The intravenous administration groups: Blood was collected before administration and 5 min, 0.25 h, 0.5 h, 1.0 h, 2.0 h, 4.0 h, 8.0 h, 12.0 h and 24 h after administration and processed as in the intragastric administration groups.
The plasma concentrations of the test compounds were determined after administration of different concentrations of the test compounds to beagles: plasma samples (50 μL) were collected from beagles at various time points after administration, and proteins were precipitated with 500 μL of methanol (containing 100 ng/mL internal standard Verapamil) for each of the samples; the mixtures were vortexed for 1 min and centrifuged at 18,000 g for 7 min. 500 μL of supernatant was transferred to a 96-well plate. 1 μL of supernatant was collected for LC/MS/MS analysis.

[1] = both sexes, beagle, dog, plasma, iv, i.v., 0.5 mg/kg
[2] = both sexes, beagle, dog, plasma, po, i.g., 2.0 mg/kg

Q: Which results are given for `CC(C)C[C@H]1CCc2cc(O)ccc2[C@H]1c1ccc(N2CCC(CN3CCN(c4ccc5c(c4)CN([C@H]4CCC(=O)NC4=O)C5=O)CC3)CC2)cc1` [Example 26-1, (S)-3-(5-(4-((1-(4-((1R,2R)-6-Hydroxy-2-isobutyl-1,2,3,4-tetrahydronaphthalen-1-yl)phenyl)piperidin-4-yl)methyl)piperazin-1-yl)-1-oxoisoindolin-2-yl)piperidine-2,6-dione]?
A: Clearance CL/F (i.v., 0.5 mg/kg): 1.7 mL/min/kg; AUC(0-t) [1]: 4070 ng·h/mL; half-life [1]: 582 min; Cmax [1]: 1600 ng/mL; Vd/F (both sexes, beagle, dog, plasma, po, i.g., 2.0 mg/kg, read-out: Apparent distribution volume Vz/F): 5.67 L/kg; AUC(0-t) [2]: 4820 ng·h/mL; CL/F (both sexes, beagle, dog, plasma, po, i.g., 2.0 mg/kg, read-out: Clearance CL/F): 6.2 mL/min/kg; half-life [2]: 624 min; Cmax [2]: 436 ng/mL
